{"source": "paper PMC5511861", "about": "“DS16570511 is a small-molecule inhibitor of the mitochondrial calcium uniporter” (Cell Death Discovery, 2017)", "key": {"[1]": {"tested_on": "serum-induced cytosolic Ca2+ increase in HEK293A cells", "test": "Counter assay: serum-induced cytosolic Ca2+ increase in HEK293A cells expressing aequorin in cytosol", "assay_type": "cell-based, human", "conditions": "read-out: concentration used to decrease the serum-induced cytosolic Ca2+ increase by 50%", "protocol": "In the first screening using the cell-based assay, application of 10% fetal bovine serum to the cells triggered a rapid increase of mitochondrial Ca^2+ level (Figure 1a). Pretreatment of the cells with DS16570511 inhibited the serum-induced mitochondrial Ca^2+ influx with an IC50 of 7 μM (Figures 1a and b). In order to eliminate broad channel inhibitors or chemicals affecting the aequorin-based detection system, a counter assay was carried out using HEK293A cells expressing aequorin in cytosol. In the assay, the concentration of DS16570511 used to decrease the serum-induced cytosolic Ca^2+ increase by 50% was ~50 μM.\nFor dynamic measurements of mitochondrial Ca^2+ levels in intact cells, HEK293A cells were stably transfected with pIRES-puro vector expressing mitochondria-targeted aequorin.[20] One day after plating on a 15-cm dish (8×10^6 cells/dish), the cells were harvested and incubated with 2.5 μM coelenterazine h in aequorin assay buffer (200 mM Hanks Balanced Salt Solution, 25 mM HEPES (pH 7.0) and 0.1% bovine serum albumin) for 2 h at room temperature. The cells (8.1×10^4 cells/well) were then treated with DS16570511 for 20 min in a 96-well plate at room temperature. For induction of intracellular Ca^2+, the cells were treated with 10% fetal bovine serum, and luminescence levels were measured by using a Centro LB960 luminometer (Berthold Technologies, Oak Ridge, TN, USA)."}, "MICU1": {"target": "T1, MICU1 (Homo sapiens, UniProt Q9BPX6)", "T1 construct": "expressed in transfected cells; host or cells: HEK293A cells, transient co-transfection with the mitochondria-targeted aequorin vector", "T1 sequence (Q9BPX6 34-476)": "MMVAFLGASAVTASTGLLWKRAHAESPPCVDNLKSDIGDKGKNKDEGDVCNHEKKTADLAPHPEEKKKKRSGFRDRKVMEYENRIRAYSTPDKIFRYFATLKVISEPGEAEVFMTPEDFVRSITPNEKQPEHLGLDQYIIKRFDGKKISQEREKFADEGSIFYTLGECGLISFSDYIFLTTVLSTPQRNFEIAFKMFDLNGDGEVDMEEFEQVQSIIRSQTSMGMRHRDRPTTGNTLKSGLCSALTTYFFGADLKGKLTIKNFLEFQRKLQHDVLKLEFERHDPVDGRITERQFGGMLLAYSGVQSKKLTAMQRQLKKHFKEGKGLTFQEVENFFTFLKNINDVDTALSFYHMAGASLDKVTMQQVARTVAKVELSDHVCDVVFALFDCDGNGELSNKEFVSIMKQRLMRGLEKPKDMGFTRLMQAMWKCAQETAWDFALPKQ", "test": "MICU1-dependent mitochondrial Ca2+ influx in HEK293A cells overexpressing human MICU1", "assay_type": "cell-based", "conditions": "HEK293A cells overexpressing MICU1, serum-induced", "excerpt": "Next, to investigate the molecular component of the mitochondrial calcium uniporter, MCU-dependent and MICU-dependent Ca^2+ influx were examined. […] The MCU-dependent increment of Ca^2+ influx was blocked by the DS16570511 pretreatment (Figure 5b). We then investigated the effects of the inhibitor on the regulatory subunit MICU1. Previous studies have shown that MICU1 facilitates mitochondrial Ca^2+ uptake through the presence of a high Ca^2+ level.[11],[22]\nFigure 5 DS16570511 inhibits mitochondrial Ca^2+ influx by MCU or MICU1. (a) Effect of overexpression of MCU or MICU1 on mitochondrial Ca^2+ influx in HEK293A cells. (b) Effect of DS16570511 on MCU-dependent mitochondrial Ca^2+ uptake in HEK293A cells. (c) Effect of DS16570511 on MICU1-dependent mitochondrial Ca^2+ uptake in HEK293A cells. […]\nIn order to evaluate mitochondrial Ca^2+ uptake activity by MCU or MICU1, HEK293A cells were transiently transfected with the mitochondria-targeted aequorin vector and pcDNA3.1 vector containing human Mcu (NCBI Reference Sequence: NM_138357.2) or Micu1 (NM_001195518.1). One day after the transfection, the luminescence levels were measured as described above. MCU- or MICU1-dependent activity was calculated by subtracting the luminescence level of cells transfected with empty vector from that of cells expressing MCU or MICU1, respectively."}, "[2]": {"tested_on": "membrane potential of pig heart mitochondria", "test": "Mitochondrial membrane potential assay (JC-10) in pig heart mitochondria", "assay_type": "biochemical", "conditions": "JC-10, 5 min incubation", "excerpt": "Next we analyzed the mechanism of action of DS16570511. The previous studies implicated two possible inhibitory mechanisms for the mitochondrial Ca^2+ uptake: (1) direct blockade of the calcium uniporter and (2) disruption of the membrane potential.[20],[21] Mitochondrial Ca^2+ uptake is mediated by electrical potential across the mitochondrial inner membrane, which is generated by the oxidative phosphorylation system. […] To examine effects on the mitochondrial membrane potential, fluorescent indicator JC-10 was used in mitochondria from pig heart.\n(a) Effect of FCCP on Ca^2+ uptake of pig heart mitochondria. […] Relative membrane potential 0 or 100% is defined as value of 1 μM FCCP-treated mitochondria or vehicle-treated mitochondria, respectively. Data are mean with S.E.M. from three (a) or four (b) independent samples.\nPig heart mitochondria were prepared as described above and suspended in the swelling buffer containing 1 μM JC-10. The protein concentration of the solution was 5 mg/ml. Five minutes after incubation of the mitochondria with DS16570511 at room temperature, fluorescence intensities were measured by a FlexStation 3 (Molecular Devices, LLC, Sunnyvale, CA, USA) using the green channel (excitation/emission wavelength: 485/538 nm) or the red channel (excitation/emission wavelength: 485/612 nm)."}, "rat perfused heart": {"tested_on": "rat perfused heart", "test": "Cardiac functions (heart rate, contractility) in rat isolated perfused heart", "protocol": "We then investigated the effect of DS16570511 on cardiac functions in the perfused heart. We observed that heart rate was unaffected by DS16570511 in the range of 3–30 μM (Figure 7a). […] The increase of contractility was diminished by washout of the drug (Figure 7b), showing that the cardiac effect of DS16570511 is reversible.\nFigure 7 Effects of DS16570511 on cardiac functions. (a) Effect of DS16570511 on heart rate in rat perfused heart. Data are mean with S.E.M. from more than four independent samples. (b) Representative data showing acute and reversible effect of DS16570511 on contractility. (c) Effect of DS16570511 on contractility in rat perfused heart. Plotted are values of pretreatment and 5 min after treatment of 10 or 30 μM DS16570511.\nThe hearts were rapidly excised from 9-week-old male Wistar rats and perfused at 37 °C with Krebs-Ringer perfusion buffer (127.2 mM NaCl, 4.7 mM KCl, 2.5 mM CaCl2, 1.2 mM KH2PO4, 1.2 mM MgSO4, 25 mM NaHCO3 and 5.5 mM glucose (pH 7.4)) equilibrated with 95% O2/5% CO2. A balloon was inserted through the left atrium into the left ventricle. Heart rate and contractility were continuously recorded with a data acquisition system (PowerLab, ADInstruments, Bella Vista, NSW, Australia)."}}}
{"smiles": "Cc1onc(-c2c(Cl)cccc2Cl)c1CNc1cccc(C(=O)c2cn(CCCC(=O)O)c3ccccc23)c1", "note": "[DS16570511]", "values": [{"measurement": "IC50", "setting": "[1]", "value": "~50", "unit": "µM"}, {"measurement": "effect on MICU1-dependent activation of the uniporter", "setting": "MICU1", "value": "blocked by DS16570511 in a dose-dependent manner"}, {"measurement": "effect on mitochondrial membrane potential", "setting": "[2]", "value": "not reduced"}, {"measurement": "effect on heart rate", "setting": "rat perfused heart; 3–30 μM", "value": "unaffected"}, {"measurement": "effect on cardiac contractility", "setting": "rat perfused heart; 10 or 30 μM, 5 min after treatment", "value": "increased cardiac contractility"}, {"measurement": "reversibility of the cardiac effect on washout", "setting": "rat perfused heart; washout of the drug", "value": "reversible"}]}
